From publication PMC10746543, “Design principles for cyclin K molecular glue degraders” (Nature Chemical Biology, 2023)
Where “and” joins values, the source holds several entries; their conditions need not be identical. Identical values can stand only once.

How the values were obtained:
CDK12 = target: T1, CDK12 (Homo sapiens, UniProt Q16531+Q9NYV4); assay: Label-free quantitative mass spectrometry in MDA-MB-231 cells, CDK12; assay type: cell-based
T1 construct: endogenous in cells; host or cells: MDA-MB-231
Procedure, shortened: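 MDA-MB-231 cells treated 5 h with 1 µM cyclin K degrader or DMSO. Lysates digested with LysC and trypsin, then analysed by label-free diaPASEF LC-MS on a TimsTOF Pro2 with directDIA search and MS1 precursor quantification. Protein abundances scaled and analysed with limma.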

CDK2–cyclin A = target: T2, CDK2–cyclin A (Homo sapiens, UniProt P24941); assay: Lanthascreen kinase binding assay, CDK2; conditions: for Lanthascreen signal, sheet CDK2: raw replicates, experiment r36-r46
T2 construct: purchased Thermo Fisher
Method: Lanthascreen experiments were performed using commercially available reagents (Thermo Fisher) and according to the manufacturer’s instructions.

CDK12–cyclin K and DDB1 = target: T3, CDK12–cyclin K and DDB1 (Homo sapiens, UniProt Q16531+Q9NYV4, K965R); assay: TR-FRET Kd determination, quadratic fit, 50 nM or 10 nM CDK12–cyclin K; assay type: binding
T3 construct: His6–CDK12 (a.a. 713–1,052); full-length or beta-propeller B domain deletion (ΔBPB: a.a. 396–705 deleted) constructs of His6–DDB1ΔBPB, StrepII–Avi–DDB1, or His6–Spy–DDB1; made in house; host or cells: Trichoplusia ni High Five insect cells (baculovirus)
Excerpt: Equation (2) is a quadratic binding equation used for Kd determination,where Top and Bottom refer to the curve plateaus. […]

[1] = 10 nM CDK12-cyclin K + 100 nM DDB1, n = 1

T1 sequence (Q9NYV4 whole entry): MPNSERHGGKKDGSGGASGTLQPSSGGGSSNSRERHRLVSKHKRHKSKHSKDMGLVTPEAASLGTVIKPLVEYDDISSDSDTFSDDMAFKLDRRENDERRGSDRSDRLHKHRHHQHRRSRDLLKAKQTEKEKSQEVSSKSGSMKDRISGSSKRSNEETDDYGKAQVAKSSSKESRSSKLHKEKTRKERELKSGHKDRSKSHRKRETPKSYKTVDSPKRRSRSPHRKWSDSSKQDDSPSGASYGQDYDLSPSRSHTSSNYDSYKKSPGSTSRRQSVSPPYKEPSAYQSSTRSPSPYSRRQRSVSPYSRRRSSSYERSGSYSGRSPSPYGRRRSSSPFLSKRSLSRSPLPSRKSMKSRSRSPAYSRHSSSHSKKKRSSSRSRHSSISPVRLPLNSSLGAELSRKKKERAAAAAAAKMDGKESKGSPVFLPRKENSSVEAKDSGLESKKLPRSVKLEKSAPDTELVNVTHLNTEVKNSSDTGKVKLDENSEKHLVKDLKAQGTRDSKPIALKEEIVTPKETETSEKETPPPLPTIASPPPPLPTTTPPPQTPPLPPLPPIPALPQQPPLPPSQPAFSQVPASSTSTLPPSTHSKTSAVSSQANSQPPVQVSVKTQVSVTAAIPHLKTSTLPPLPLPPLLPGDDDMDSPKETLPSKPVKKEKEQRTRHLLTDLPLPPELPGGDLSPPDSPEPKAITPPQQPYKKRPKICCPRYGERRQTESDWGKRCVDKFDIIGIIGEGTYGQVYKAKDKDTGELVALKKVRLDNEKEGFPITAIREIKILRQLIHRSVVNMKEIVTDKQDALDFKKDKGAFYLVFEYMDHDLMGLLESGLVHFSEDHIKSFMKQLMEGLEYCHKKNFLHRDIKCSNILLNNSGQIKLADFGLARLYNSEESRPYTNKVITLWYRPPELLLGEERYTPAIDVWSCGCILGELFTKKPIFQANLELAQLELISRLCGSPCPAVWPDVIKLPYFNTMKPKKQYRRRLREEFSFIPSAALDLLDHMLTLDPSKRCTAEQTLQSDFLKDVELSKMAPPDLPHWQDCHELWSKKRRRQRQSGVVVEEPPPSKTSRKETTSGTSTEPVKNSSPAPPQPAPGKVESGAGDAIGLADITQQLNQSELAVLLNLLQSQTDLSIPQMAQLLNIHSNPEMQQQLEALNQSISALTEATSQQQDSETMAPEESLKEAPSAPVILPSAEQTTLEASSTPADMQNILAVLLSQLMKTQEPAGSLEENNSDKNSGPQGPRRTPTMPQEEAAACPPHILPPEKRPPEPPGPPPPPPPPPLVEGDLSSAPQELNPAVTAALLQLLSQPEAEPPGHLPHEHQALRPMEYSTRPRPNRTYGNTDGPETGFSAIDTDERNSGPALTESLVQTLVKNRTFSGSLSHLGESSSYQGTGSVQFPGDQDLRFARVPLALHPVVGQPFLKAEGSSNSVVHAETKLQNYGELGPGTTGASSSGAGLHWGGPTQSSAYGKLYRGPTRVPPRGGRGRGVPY
T1 sequence (O75909 whole entry partner): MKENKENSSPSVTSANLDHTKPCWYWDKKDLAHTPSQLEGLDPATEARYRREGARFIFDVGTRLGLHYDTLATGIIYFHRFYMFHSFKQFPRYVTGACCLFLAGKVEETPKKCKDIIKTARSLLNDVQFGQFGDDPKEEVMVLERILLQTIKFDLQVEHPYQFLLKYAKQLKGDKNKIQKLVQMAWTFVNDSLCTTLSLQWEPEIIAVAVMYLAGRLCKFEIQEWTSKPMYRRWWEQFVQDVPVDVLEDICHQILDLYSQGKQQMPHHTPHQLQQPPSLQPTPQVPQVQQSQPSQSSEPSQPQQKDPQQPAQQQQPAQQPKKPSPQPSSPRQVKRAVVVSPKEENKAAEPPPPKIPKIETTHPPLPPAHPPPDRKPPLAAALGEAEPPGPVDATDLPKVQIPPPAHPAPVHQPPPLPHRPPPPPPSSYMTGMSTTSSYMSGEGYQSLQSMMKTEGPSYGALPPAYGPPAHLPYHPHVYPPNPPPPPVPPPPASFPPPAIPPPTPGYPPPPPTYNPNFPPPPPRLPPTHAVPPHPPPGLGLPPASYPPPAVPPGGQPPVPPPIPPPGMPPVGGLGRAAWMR
T1 sequence (Q16531 2-1140 limits assumed): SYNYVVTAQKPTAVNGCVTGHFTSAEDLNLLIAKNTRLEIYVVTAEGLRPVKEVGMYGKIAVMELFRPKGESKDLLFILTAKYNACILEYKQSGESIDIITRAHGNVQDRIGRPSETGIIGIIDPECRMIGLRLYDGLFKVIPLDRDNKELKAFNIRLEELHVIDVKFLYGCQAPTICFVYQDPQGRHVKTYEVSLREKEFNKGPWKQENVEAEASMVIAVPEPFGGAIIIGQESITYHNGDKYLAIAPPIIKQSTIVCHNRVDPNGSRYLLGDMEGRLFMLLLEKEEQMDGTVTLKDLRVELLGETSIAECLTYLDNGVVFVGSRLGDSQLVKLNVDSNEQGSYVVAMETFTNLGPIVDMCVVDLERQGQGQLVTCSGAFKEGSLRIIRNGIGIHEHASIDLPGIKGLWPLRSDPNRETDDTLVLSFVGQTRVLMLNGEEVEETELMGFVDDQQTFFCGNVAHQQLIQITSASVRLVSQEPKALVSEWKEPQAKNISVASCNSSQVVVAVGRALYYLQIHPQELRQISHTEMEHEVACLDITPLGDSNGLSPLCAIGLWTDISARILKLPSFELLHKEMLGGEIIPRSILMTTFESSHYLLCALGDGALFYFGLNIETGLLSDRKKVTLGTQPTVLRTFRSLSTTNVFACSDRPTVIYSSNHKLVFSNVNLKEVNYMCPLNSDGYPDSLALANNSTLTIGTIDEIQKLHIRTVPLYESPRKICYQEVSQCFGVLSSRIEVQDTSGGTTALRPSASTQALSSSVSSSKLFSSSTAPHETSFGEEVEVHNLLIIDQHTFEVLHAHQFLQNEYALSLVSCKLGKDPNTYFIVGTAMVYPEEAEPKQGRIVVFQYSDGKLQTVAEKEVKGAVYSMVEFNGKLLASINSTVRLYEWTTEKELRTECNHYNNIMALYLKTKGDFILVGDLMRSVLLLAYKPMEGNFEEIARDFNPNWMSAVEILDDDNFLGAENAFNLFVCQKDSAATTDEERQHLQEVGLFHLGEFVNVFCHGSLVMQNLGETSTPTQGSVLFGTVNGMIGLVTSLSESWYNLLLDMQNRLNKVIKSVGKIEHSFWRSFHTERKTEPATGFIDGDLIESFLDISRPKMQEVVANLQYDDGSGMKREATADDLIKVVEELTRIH
T3 sequence (Q9NYV4 713-1052 K965R): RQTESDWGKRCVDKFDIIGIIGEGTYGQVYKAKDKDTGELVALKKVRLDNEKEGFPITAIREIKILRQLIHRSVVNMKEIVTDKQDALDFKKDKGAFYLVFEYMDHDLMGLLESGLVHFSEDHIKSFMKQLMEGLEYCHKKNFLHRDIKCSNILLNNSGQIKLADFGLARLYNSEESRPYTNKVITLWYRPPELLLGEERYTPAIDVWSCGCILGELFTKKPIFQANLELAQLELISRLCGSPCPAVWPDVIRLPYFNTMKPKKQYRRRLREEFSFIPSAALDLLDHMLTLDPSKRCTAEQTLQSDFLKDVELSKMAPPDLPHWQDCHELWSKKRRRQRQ
T3 sequence (O75909 1-267 partner): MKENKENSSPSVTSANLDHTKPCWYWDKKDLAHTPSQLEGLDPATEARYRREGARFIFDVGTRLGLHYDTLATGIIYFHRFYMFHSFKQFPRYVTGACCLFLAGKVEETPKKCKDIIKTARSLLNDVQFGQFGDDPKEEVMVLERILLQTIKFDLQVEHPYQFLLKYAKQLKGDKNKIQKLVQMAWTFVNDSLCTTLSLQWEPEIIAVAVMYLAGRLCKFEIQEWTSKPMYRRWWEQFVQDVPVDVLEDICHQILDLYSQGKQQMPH
T3 sequence (Q16531 whole entry): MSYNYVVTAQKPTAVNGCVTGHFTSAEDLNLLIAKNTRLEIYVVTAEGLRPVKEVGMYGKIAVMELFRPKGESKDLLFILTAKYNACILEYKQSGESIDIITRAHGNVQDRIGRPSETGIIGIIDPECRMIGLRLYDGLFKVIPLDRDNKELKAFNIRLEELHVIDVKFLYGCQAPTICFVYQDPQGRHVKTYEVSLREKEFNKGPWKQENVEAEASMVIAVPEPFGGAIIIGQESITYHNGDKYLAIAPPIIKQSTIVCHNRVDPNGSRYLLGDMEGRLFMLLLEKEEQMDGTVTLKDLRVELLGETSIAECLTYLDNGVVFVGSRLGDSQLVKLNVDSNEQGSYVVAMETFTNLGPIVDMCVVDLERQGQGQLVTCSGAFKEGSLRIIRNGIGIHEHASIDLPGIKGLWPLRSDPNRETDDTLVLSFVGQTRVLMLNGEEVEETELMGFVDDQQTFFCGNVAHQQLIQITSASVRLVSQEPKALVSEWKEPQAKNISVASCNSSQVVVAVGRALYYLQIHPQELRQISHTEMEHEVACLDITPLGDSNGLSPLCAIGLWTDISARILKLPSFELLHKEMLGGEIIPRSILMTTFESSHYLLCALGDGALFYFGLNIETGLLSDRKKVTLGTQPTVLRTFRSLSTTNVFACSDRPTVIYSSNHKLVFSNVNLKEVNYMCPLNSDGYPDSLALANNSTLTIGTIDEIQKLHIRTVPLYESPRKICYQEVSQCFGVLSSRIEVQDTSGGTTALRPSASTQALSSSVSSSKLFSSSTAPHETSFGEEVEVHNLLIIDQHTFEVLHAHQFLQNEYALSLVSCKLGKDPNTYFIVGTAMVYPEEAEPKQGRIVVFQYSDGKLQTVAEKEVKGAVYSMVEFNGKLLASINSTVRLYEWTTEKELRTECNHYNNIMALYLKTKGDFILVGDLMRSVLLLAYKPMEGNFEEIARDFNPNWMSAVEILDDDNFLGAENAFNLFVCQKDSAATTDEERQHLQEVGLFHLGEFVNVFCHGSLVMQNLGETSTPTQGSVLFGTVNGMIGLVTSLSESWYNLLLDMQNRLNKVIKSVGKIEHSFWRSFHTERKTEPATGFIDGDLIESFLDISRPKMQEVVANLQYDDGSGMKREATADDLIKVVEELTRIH

Compound: CC[C@H](CO)Nc1nc(NCc2nc3cc(Cl)c(Cl)cc3[nH]2)c2ncn(C(C)C)c2n1 [DS17]
- CDK12 peptide count (CDK12; label-free quantitative MS, replicate values): 546.795 and 667.348
- CDK12 peptide count (DMSO-normalised) (CDK12; normalised to DMSO = 1, replicate values): 0.6075 and 0.6893
- Lanthascreen signal, sheet CDK2 (CDK2–cyclin A; Compound 0.038147 nM): 0.01335 and 0.01346
- Lanthascreen signal, sheet CDK2 (CDK2–cyclin A; Compound 0.152588 nM): 0.01372 and 0.01373
- Lanthascreen signal, sheet CDK2 (CDK2–cyclin A; Compound 0.610352 nM): 0.01335 and 0.01333
- Lanthascreen signal, sheet CDK2 (CDK2–cyclin A; Compound 9.76563 nM): 0.01387 and 0.01379
- Lanthascreen signal, sheet CDK2 (CDK2–cyclin A; Compound 39.0625 nM): 0.01306 and 0.01354
- Lanthascreen signal, sheet CDK2 (CDK2–cyclin A; Compound 156.25 nM): 0.01303 and 0.01259
- Lanthascreen signal, sheet CDK2 (CDK2–cyclin A; Compound 625 nM): 0.01178 and 0.01167
- Lanthascreen signal, sheet CDK2 (CDK2–cyclin A; Compound 2500 nM): 0.01002 and 0.01073
- Lanthascreen signal, sheet CDK2 (CDK2–cyclin A; Compound 10000 nM): 0.0065 and 0.006945
- IC50 (CDK2–cyclin A; Supplementary Table 2, read-out: Lanthascreen IC50 [nM] CDK2): 10300 nM
- Kd (CDK12–cyclin K and DDB1; [1]): < 0.001 µM
- TR-FRET Kd* (CDK12–cyclin K and DDB1; [1]): subnanomolar range
- TR-FRET signal (CDK12–cyclin K and DDB1; 10 nM CDK12-cyclin K, compound 0.468 nM): 0.1296
- TR-FRET signal (CDK12–cyclin K and DDB1; 10 nM CDK12-cyclin K, compound 2.16 nM): 0.2552
- TR-FRET signal (CDK12–cyclin K and DDB1; 10 nM CDK12-cyclin K, compound 3.6 nM): 0.4087
- TR-FRET signal (CDK12–cyclin K and DDB1; 10 nM CDK12-cyclin K, compound 7.92 nM): 0.5094
- TR-FRET signal (CDK12–cyclin K and DDB1; 10 nM CDK12-cyclin K, compound 15.84 nM): 0.5468
- TR-FRET signal (CDK12–cyclin K and DDB1; 10 nM CDK12-cyclin K, compound 30.96 nM): 0.5623
- TR-FRET signal (CDK12–cyclin K and DDB1; 10 nM CDK12-cyclin K, compound 62.6399 nM): 0.5693
- TR-FRET signal (CDK12–cyclin K and DDB1; 10 nM CDK12-cyclin K, compound 125.279 nM): 0.582
- TR-FRET signal (CDK12–cyclin K and DDB1; 10 nM CDK12-cyclin K, compound 244.8 nM): 0.5785
- TR-FRET signal (CDK12–cyclin K and DDB1; 10 nM CDK12-cyclin K, compound 993.6 nM): 0.5613
- TR-FRET signal (CDK12–cyclin K and DDB1; 10 nM CDK12-cyclin K, compound 2001.6 nM): 0.5626
- Kd (CDK12–cyclin K and DDB1; 50 nM CDK12-cyclin K + 100 nM DDB1, n = 1): < 0.001 µM
- TR-FRET signal (CDK12–cyclin K and DDB1; 50 nM CDK12-cyclin K, compound 0.468 nM): 0.2322
- TR-FRET signal (CDK12–cyclin K and DDB1; 50 nM CDK12-cyclin K, compound 2.16 nM): 0.3077
- TR-FRET signal (CDK12–cyclin K and DDB1; 50 nM CDK12-cyclin K, compound 3.6 nM): 0.4714
- TR-FRET signal (CDK12–cyclin K and DDB1; 50 nM CDK12-cyclin K, compound 7.92 nM): 0.8383
- TR-FRET signal (CDK12–cyclin K and DDB1; 50 nM CDK12-cyclin K, compound 15.84 nM): 1.774
- TR-FRET signal (CDK12–cyclin K and DDB1; 50 nM CDK12-cyclin K, compound 30.96 nM): 3.053
- TR-FRET signal (CDK12–cyclin K and DDB1; 50 nM CDK12-cyclin K, compound 62.6399 nM): 3.258
- TR-FRET signal (CDK12–cyclin K and DDB1; 50 nM CDK12-cyclin K, compound 125.279 nM): 3.326
- TR-FRET signal (CDK12–cyclin K and DDB1; 50 nM CDK12-cyclin K, compound 244.8 nM): 3.353
- TR-FRET signal (CDK12–cyclin K and DDB1; 50 nM CDK12-cyclin K, compound 993.6 nM): 3.25
- TR-FRET signal (CDK12–cyclin K and DDB1; 50 nM CDK12-cyclin K, compound 2001.6 nM): 3.218
